# Assay results as given in BindingDB's records for doi:10.1021/acs.jmedchem.8b01300 (Emory University School of Medicine, 2019).
# What was measured:
# [1] = biological target: RNA-directed RNA polymerase (Hepacivirus hominis, UniProt Q8JXU8); experiment: Inhibition of NS5B polymerase in wild type HCV genotype 1b infected in human Huh7 replicon cells after 5 days by RT-PCR assay
# [2] = Inhibition of NS5B polymerase in wild type HCV genotype 1b infected in human Huh7 replicon cells after 5 days by RT-PCR assay
smiles,measurement,setting,value
C[C@@]1(O)[C@H](O)[C@@H](CO)O[C@H]1n1ccc(N)nc1=O,EC50,[1],2.8 µM
CC(C)OC(=O)[C@H](C)NP(=O)(OC[C@H]1O[C@@H](n2ccc(N)nc2=O)[C@](F)(Br)[C@H]1O)Oc1ccccc1 (stereo not given in full),EC50,[1],0.6 µM
Nc1nc2c(ncn2[C@@H]2O[C@H](CO)[C@@H](O)[C@]2(F)Br)c(=O)[nH]1,EC50,[2],> 10 µM
Nc1ccn([C@@H]2O[C@H](CO)[C@@H](O)[C@]2(F)Br)c(=O)n1,EC50,[1],4 µM
Nc1ncnc2c1ncn2[C@@H]1O[C@H](CO)[C@H](O)[C@@]1(F)Br,EC50,[1],> 10 µM
